Data on 18 molecules can be found in patent US10221173B2, “Chemical compounds” (AstraZeneca AB, priority 2017, dated 2019).

In brackets after ≈: the same amount, converted by molar mass. Where only a bound is given, the exact number is not on record here.

The target of data set [1] is recombinant human Estrogen Receptor alpha ligand binding domain (ER alpha-LBD (GST)) (Homo sapiens (Human), UniProt P03372). The experiment in a line: ERα binding assay (LanthaScreen TR-FRET competition).
In data set [2] the target is T1, Estrogen Receptor (ERα) in MCF-7 cells (Homo sapiens (Human), UniProt P03372). The experiment in a line: MCF-7 ER down-regulation assay (immuno-fluorescence). The class given is cell-based.
T1 sequence (P03372 whole entry): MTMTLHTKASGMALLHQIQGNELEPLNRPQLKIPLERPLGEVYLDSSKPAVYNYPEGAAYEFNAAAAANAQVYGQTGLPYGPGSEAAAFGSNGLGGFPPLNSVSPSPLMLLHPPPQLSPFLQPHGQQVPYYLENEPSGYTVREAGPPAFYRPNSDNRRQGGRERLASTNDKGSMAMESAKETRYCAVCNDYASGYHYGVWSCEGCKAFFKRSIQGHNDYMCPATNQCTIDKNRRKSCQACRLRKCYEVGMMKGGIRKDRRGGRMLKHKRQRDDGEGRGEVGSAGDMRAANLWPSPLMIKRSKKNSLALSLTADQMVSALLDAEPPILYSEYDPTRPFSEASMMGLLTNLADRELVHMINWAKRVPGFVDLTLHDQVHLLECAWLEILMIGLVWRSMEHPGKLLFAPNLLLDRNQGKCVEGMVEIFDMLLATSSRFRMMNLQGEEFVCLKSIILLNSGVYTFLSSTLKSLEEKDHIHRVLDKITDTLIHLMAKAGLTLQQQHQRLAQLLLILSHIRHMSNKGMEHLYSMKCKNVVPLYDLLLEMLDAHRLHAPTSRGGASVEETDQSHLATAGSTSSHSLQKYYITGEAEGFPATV
The target of data set [3] is estrogen receptor (ERα) in CAMA-1 cells (Homo sapiens (Human), UniProt P03372). Nature of the data set: Western blotting assay, ER down-regulation in CAMA-1. In kind it is cell-based. Conditions: CAMA-1, 100 nM compound, 48 h, vs 100 nM fulvestrant. Background: Immunoblotting shows a protein as a band on a membrane.
Sequence of estrogen receptor (ERα) in CAMA-1 cells (P03372 whole entry): as above
In data set [4] the target is T1, Estrogen Receptor (ERα) in MCF-7 cells. Nature of the data set: Western blotting assay, ER down-regulation in MCF-7. Conditions: MCF-7, 100 nM compound, 48 h, vs 100 nM fulvestrant. The class given is cell-based.
A short description of data set [5]: Thermodynamic solubility (shake-flask). The note with it: aqueous phosphate buffer, 25 °C, pH 7.4, aqueous buffer, thermodynamic from solid, phosphate buffer pH 7.4, 24 hours. In kind it is physicochemical.
Data set [6] in a line: Log D (shake flask, 1-octanol/aqueous buffer). The note with it: 1-octanol/aqueous buffer, pH 7.4, pH 7.4. In kind it is physicochemical.
The nature of data set [7]: Human plasma protein binding (equilibrium dialysis). In kind it is in vitro ADME. For orientation: In equilibrium dialysis free small molecules cross a membrane that holds back macromolecules.
The next data set addresses hERG potassium channel (Homo sapiens (Human), UniProt Q12809).

In general, IC50 refers to the concentration at which inhibition is half-maximal. As usually defined, the solubility is the dissolved amount per volume that the medium holds. A low value points to little dissolved substance. In general, logD refers to lipophilicity at a set pH, counting ionised and neutral species. A higher logD goes with higher lipophilicity.

Sequence of recombinant human Estrogen Receptor alpha ligand binding domain (ER alpha-LBD (GST)) (P03372 307-554): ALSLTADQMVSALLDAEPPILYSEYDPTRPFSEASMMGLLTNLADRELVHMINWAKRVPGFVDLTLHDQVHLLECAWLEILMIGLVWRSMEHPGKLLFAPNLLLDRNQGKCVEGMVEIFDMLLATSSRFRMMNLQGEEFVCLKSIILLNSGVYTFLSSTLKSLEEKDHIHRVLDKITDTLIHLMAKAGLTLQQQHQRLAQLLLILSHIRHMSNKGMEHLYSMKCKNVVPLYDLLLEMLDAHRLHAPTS
Sequence of hERG potassium channel (Q12809 whole entry): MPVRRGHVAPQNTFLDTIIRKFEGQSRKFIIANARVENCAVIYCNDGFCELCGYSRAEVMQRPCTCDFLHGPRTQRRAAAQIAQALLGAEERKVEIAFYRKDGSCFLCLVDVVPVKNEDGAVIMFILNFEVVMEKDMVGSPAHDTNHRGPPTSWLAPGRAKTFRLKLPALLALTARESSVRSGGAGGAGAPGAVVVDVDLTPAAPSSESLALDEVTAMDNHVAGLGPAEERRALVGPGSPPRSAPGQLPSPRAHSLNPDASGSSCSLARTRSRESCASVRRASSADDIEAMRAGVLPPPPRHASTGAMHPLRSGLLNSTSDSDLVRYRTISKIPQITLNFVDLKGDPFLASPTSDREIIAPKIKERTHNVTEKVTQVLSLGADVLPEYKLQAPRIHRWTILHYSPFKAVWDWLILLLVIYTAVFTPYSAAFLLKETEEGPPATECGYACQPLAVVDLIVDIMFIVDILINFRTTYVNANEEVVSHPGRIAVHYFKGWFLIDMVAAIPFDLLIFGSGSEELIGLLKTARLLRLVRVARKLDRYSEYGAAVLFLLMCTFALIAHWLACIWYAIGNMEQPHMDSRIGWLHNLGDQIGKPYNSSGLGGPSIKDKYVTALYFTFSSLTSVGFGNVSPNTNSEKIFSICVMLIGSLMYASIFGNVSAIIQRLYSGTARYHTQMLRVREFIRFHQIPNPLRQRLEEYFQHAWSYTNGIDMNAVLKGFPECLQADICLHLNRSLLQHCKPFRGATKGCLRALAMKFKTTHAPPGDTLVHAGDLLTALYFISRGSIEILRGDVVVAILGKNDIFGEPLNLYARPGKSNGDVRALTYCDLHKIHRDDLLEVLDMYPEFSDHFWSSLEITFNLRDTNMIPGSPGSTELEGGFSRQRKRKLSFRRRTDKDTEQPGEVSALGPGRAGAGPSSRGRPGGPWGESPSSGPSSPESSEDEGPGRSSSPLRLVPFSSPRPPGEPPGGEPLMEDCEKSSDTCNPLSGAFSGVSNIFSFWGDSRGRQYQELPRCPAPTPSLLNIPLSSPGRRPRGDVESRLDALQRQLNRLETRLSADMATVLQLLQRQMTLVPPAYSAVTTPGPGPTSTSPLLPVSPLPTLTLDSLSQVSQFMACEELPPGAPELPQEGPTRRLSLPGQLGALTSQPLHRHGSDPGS

`C[C@@H]1Cc2c([nH]c3ccccc23)[C@@H](c2c(F)ccc(OCCNCCCF)c2F)N1CC(F)(F)F` [Example 9, N-(2-(2,4-difluoro-3-((1R,3R)-3-methyl-2-(2,2,2-trifluoroethyl)-2,3,4,9-tetrahydro-1H-pyrido[3,4-b]indol-1-yl)phenoxy)ethyl)-3-fluoropropan-1-amine]: the IC50 in data set [1] came to 1.2 nM; in data set [2], 0.088 nM. For the same molecule, in data set [3], the “CAMA1 Western % ER deg vs Fv” value is 101%. Also, in data set [4], the “MCF7 Western % ER deg vs Fv” value came out at 97%.

With `C[C@@H]1Cc2c([nH]c3ccccc23)[C@@H](c2cc(OCCNCCCF)ccc2F)N1CC(F)(F)F` [Example 10, 3-fluoro-N-(2-(4-fluoro-3-((1R,3R)-3-methyl-2-(2,2,2-trifluoroethyl)-2,3,4,9-tetrahydro-1H-pyrido[3,4-b]indol-1-yl)phenoxy)ethyl)propan-1-amine], the “CAMA1 Western % ER deg vs Fv” value in data set [3] was found to be 101%. For the same molecule, the “MCF7 Western % ER deg vs Fv” value in data set [4] came to 94%.

On to `COc1ccc(OCCNCCCF)c(F)c1[C@@H]1c2[nH]c3ccccc3c2C[C@@H](C)N1CC(F)(F)F` [Example 11, 3-fluoro-N-(2-(2-fluoro-4-methoxy-3-((1R,3R)-3-methyl-2-(2,2,2-trifluoroethyl)-2,3,4,9-tetrahydro-1H-pyrido[3,4-b]indol-1-yl)phenoxy)ethyl)propan-1-amine], for which the concentration for half-maximal inhibition (IC50) in data set [1] worked out at 1.2 nM; in data set [2], 0.14 nM. For the same molecule, the “CAMA1 Western % ER deg vs Fv” value in data set [3] is 92%. The “MCF7 Western % ER deg vs Fv” value in data set [4] is reported as 94%.

`C[C@@H]1Cc2c([nH]c3ccccc23)[C@@H](c2c(F)ccc(OCCNCCCF)c2F)N1CC(F)(F)CO` [Example 14, 3-((1R,3R)-1-(2,6-difluoro-3-(2-((3-fluoropropyl)amino)ethoxy)phenyl)-3-methyl-1,3,4,9-tetrahydro-2H-pyrido[3,4-b]indol-2-yl)-2,2-difluoropropan-1-ol]: the “CAMA1 Western % ER deg vs Fv” value in data set [3] came out at 95%. For the same molecule, the “MCF7 Western % ER deg vs Fv” value in data set [4] was found to be 95%.

As for `Cc1c(OCCNCCCF)cccc1[C@@H]1c2[nH]c3ccccc3c2C[C@@H](C)N1CC(F)(F)F` [Example 20, 3-fluoro-N-(2-(2-methyl-3-((1R,3R)-3-methyl-2-(2,2,2-trifluoroethyl)-2,3,4,9-tetrahydro-1H-pyrido[3,4-b]indol-1-yl)phenoxy)ethyl)propan-1-amine], in data set [3], the “CAMA1 Western % ER deg vs Fv” value is reported as 91%. In data set [5], this molecule displayed a solubility at 24 h of 11 µM (≈ 5.25 µg/mL).

In the case of `COc1ccc(NCCNCCCF)cc1[C@@H]1c2[nH]c3ccccc3c2C[C@@H](C)N1CC(F)(F)F` [Example 40, N1-(3-fluoropropyl)-N2-(4-methoxy-3-((1R,3R)-3-methyl-2-(2,2,2-trifluoroethyl)-2,3,4,9-tetrahydro-1H-pyrido[3,4-b]indol-1-yl)phenyl)ethane-1,2-diamine], the IC50 in data set [1] was 7.9 nM; in data set [2] it was 0.53 nM; against hERG potassium channel, 4100 nM. For the same molecule, in data set [3], the “CAMA1 Western % ER deg vs Fv” value turned out to be 70%. In data set [6], this molecule registered a logD of 3. Further, the solubility at 24 h in data set [5] is 366 µM (≈ 180 µg/mL). Further, the “Human plasma protein binding (% free)” value in data set [7] amounted to 0.89 % free.

Consider `Cc1c(OCCNCCCF)ccc(F)c1[C@@H]1c2[nH]c3ccccc3c2C[C@@H](C)N1C[C@H](C)C(=O)O` [Example 55, (S)-3-((1R,3R)-1-(6-fluoro-3-(2-((3-fluoropropyl)amino)ethoxy)-2-methylphenyl)-3-methyl-1,3,4,9-tetrahydro-2H-pyrido[3,4-b]indol-2-yl)-2-methylpropanoic acid], for which, in data set [3], the “CAMA1 Western % ER deg vs Fv” value was 94%. In data set [4], the “MCF7 Western % ER deg vs Fv” value is 89%.

In the case of `Cc1c(OCCNCCCF)ccc(F)c1[C@@H]1c2[nH]c3ccc(F)cc3c2C[C@@H](C)N1C[C@H](C)C(=O)O` [Example 57, (S)-3-((1R,3R)-6-fluoro-1-(6-fluoro-3-(2-((3-fluoropropyl)amino)ethoxy)-2-methylphenyl)-3-methyl-1,3,4,9-tetrahydro-2H-pyrido[3,4-b]indol-2-yl)-2-methylpropanoic acid], the IC50 amounted to 2.6 nM in data set [1] and 0.34 nM in data set [2]. Also, the “MCF7 Western % ER deg vs Fv” value in data set [4] worked out at 93%.

With `C[C@@H]1Cc2c([nH]c3ccccc23)[C@@H](c2c(F)cnc(OCCNCCCF)c2F)N1CC(F)(F)CO` [Example 64, 3-((1R,3R)-1-(3,5-difluoro-2-(2-((3-fluoropropyl)amino)ethoxy)pyridin-4-yl)-3-methyl-1,3,4,9-tetrahydro-2H-pyrido[3,4-b]indol-2-yl)-2,2-difluoropropan-1-ol], the IC50 in data set [1] was determined as 0.96 nM; in data set [2] it was 0.071 nM. Also, the “CAMA1 Western % ER deg vs Fv” value in data set [3] was determined as 98%. The “MCF7 Western % ER deg vs Fv” value in data set [4] is recorded as 96%.

In the case of `C[C@@H]1Cc2c([nH]c3ccccc23)[C@@H](c2c(F)ccc(OCCNCCCF)c2F)N1CC1(F)CC1` [Example 76, N-(2-(2,4-difluoro-3-((1R,3R)-2-((1-fluorocyclopropyl)methyl)-3-methyl-2,3,4,9-tetrahydro-1H-pyrido[3,4-b]indol-1-yl)phenoxy)ethyl)-3-fluoropropan-1-amine], the IC50 came to 1 nM in data set [1] and 0.21 nM in data set [2]. Moreover, the “CAMA1 Western % ER deg vs Fv” value in data set [3] is given as 85%. Besides, the “MCF7 Western % ER deg vs Fv” value in data set [4] is recorded as 92%.

As to `Cc1c(OCCNCCCF)ccc(F)c1[C@@H]1c2[nH]c3ccc(F)cc3c2C[C@@H](C)N1C[C@@H](C)C(=O)O` [Example 121, (R)-3-((1R,3R)-6-fluoro-1-(6-fluoro-3-(2-((3-fluoropropyl)amino)ethoxy)-2-methylphenyl)-3-methyl-1,3,4,9-tetrahydro-2H-pyrido[3,4-b]indol-2-yl)-2-methylpropanoic acid], the IC50 in data set [1] is 2.8 nM; in data set [2], 0.53 nM. In addition, in data set [3], the “CAMA1 Western % ER deg vs Fv” value was found to be 107%. The “MCF7 Western % ER deg vs Fv” value in data set [4] is recorded as 85%.

As to `Cc1c(OCCNCCC(F)F)ccc(F)c1[C@@H]1c2[nH]c3ccccc3c2C[C@@H](C)N1C[C@@H](C)C(=O)O` [Example 123, (R)-3-((1R,3R)-1-(3-(2-((3,3-difluoropropyl)amino)ethoxy)-6-fluoro-2-methylphenyl)-3-methyl-1,3,4,9-tetrahydro-2H-pyrido[3,4-b]indol-2-yl)-2-methylpropanoic acid], the IC50 in data set [1] amounted to 11 nM; in data set [2] it was 0.96 nM. In data set [3], the “CAMA1 Western % ER deg vs Fv” value is 90%. The “MCF7 Western % ER deg vs Fv” value in data set [4] came out at 91%.

Consider `Cc1c(OCCNCCCF)ccc(F)c1[C@@H]1c2[nH]c3ccccc3c2C[C@@H](C(F)(F)F)N1C[C@H](C)C(=O)O` [Example 140, (S)-3-((1R,3S)-1-(6-fluoro-3-(2-((3-fluoropropyl)amino)ethoxy)-2-methylphenyl)-3-(trifluoromethyl)-1,3,4,9-tetrahydro-2H-pyrido[3,4-b]indol-2-yl)-2-methylpropanoic acid], for which the IC50 is 1.4 nM in data set [1] and 1 nM in data set [2]. For the same molecule, the “MCF7 Western % ER deg vs Fv” value in data set [4] amounted to 84%.

For `C[C@@H](CN1[C@H](c2c(F)ccc(OCCNCCCF)c2Cl)c2[nH]c3ccccc3c2C[C@H]1C(F)(F)F)C(=O)O` [Example 141], the IC50 in data set [1] was determined as 2.8 nM; in data set [2], 0.98 nM. In addition, the “MCF7 Western % ER deg vs Fv” value in data set [4] is reported as 79%.

Regarding `Cc1c(OCCN(C)CCCF)ccc(F)c1[C@@H]1c2[nH]c3ccccc3c2C[C@@H](C)N1C[C@H](C)C(=O)O` [Example 143, (S)-3-((1R,3R)-1-(6-fluoro-3-(2-((3-fluoropropyl)(methyl)amino)ethoxy)-2-methylphenyl)-3-methyl-1,3,4,9-tetrahydro-2H-pyrido[3,4-b]indol-2-yl)-2-methylpropanoic acid], the “CAMA1 Western % ER deg vs Fv” value in data set [3] stood at 71%. Further, the “MCF7 Western % ER deg vs Fv” value in data set [4] is recorded as 87%.

In the case of `Cc1c(OCCN(C)CCCF)ncc(F)c1[C@@H]1c2[nH]c3ccccc3c2C[C@@H](C)N1C[C@H](C)C(=O)O` [Example 145, (S)-3-((1R,3R)-1-(5-fluoro-2-(2-((3-fluoropropyl)(methyl)amino)ethoxy)-3-methylpyridin-4-yl)-3-methyl-1,3,4,9-tetrahydro-2H-pyrido[3,4-b]indol-2-yl)-2-methylpropanoic acid], the “MCF7 Western % ER deg vs Fv” value in data set [4] is given as 94%.

In the case of `Cc1c(OCCN(C)CCCF)ncc(F)c1[C@@H]1c2[nH]c3ccccc3c2C[C@@H](C)N1C[C@@H](C)C(=O)O` [Example 152, (R)-3-((1R,3R)-1-(5-fluoro-2-(2-((3-fluoropropyl)(methyl)amino)ethoxy)-3-methylpyridin-4-yl)-3-methyl-1,3,4,9-tetrahydro-2H-pyrido[3,4-b]indol-2-yl)-2-methylpropanoic acid], the “MCF7 Western % ER deg vs Fv” value in data set [4] turned out to be 93%.

Take `Cc1c([C@@H]2c3[nH]c4ccccc4c3C[C@@H](C)N2C[C@@H](C)C(=O)O)ccnc1OCCN(C)CCCF` [Example 161, (R)-3-((1R,3R)-1-(2-(2-((3-fluoropropyl)(methyl)amino)ethoxy)-3-methylpyridin-4-yl)-3-methyl-1,3,4,9-tetrahydro-2H-pyrido[3,4-b]indol-2-yl)-2-methylpropanoic acid]: the IC50 in data set [1] was 1.7 nM; in data set [2] it was 1.1 nM; against hERG potassium channel, more than 40000 nM. In addition, the logD in data set [6] came to 1.3. The same molecule registered a solubility at 24 h in data set [5] of more than 1000 µM. In addition, the “Human plasma protein binding (% free)” value in data set [7] is recorded as 6.3 % free.
